Source: ChEMBL document CHEMBL4739709, “Novel cyclin-dependent kinase 8 and/or 19 inhibitor” (2020)
Calls of active or inactive are those of the source. The calls are words filed in the database; no cut-off is given here.

Assays:
[1] = target: CDK8/Cyclin C (Homo sapiens) (UniProt P49336+P24863); experiment: Inhibition of human CDK8/cyclin C at 1 uM incubated for 30 mins by ELISA; assay type: protein-complex assay
[2] = test system: MV4-11; experiment: Inhibition of cell proliferation of human MV4-11 cells at 1 uM incubated for 3 days by CellTiter 96 aqueous one solution cell proliferation assay; assay type: functional; details: MV4-11, 72 h, time 3 day
[3] = target: Cyclin-dependent kinase 19 (Homo sapiens) (UniProt Q9BWU1); experiment: Inhibition of CDK19 (unknown origin) at 1 uM incubated for 30 mins by ELISA
Cyclin-dependent kinase 19 (Homo sapiens), sequence (Q9BWU1 whole entry): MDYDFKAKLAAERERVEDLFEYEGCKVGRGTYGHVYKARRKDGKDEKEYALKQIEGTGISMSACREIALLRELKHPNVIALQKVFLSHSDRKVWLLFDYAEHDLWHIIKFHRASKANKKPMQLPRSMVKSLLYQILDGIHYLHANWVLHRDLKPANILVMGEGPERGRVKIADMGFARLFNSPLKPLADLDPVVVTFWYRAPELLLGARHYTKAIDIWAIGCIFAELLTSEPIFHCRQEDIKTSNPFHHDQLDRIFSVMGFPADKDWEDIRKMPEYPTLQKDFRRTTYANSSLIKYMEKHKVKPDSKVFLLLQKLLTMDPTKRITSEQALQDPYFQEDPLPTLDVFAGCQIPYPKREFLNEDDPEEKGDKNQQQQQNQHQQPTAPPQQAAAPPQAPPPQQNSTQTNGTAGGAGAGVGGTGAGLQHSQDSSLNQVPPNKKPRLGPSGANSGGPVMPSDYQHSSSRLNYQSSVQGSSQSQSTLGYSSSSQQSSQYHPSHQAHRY

[4] = target: RAC-alpha serine/threonine-protein kinase (Homo sapiens) (UniProt P31749); experiment: Inhibition of human AKT1 at 1 uM using substrate peptide by off-chip mobility shift assay
RAC-alpha serine/threonine-protein kinase (Homo sapiens), sequence (P31749 whole entry): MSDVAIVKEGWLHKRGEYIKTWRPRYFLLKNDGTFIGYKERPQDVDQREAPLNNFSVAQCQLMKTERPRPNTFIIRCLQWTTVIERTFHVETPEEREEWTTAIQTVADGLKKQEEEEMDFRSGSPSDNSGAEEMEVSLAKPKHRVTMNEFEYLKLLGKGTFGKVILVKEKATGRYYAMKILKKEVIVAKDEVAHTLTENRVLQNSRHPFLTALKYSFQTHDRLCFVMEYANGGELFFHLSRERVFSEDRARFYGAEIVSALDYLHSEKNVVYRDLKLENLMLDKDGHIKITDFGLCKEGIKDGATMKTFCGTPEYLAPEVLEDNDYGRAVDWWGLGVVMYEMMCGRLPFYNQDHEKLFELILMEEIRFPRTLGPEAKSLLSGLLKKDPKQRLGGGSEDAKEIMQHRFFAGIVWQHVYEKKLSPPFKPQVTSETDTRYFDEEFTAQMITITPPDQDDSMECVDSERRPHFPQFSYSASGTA

[5] = target: AMP-activated protein kinase (AMPK) alpha-1/beta-1/gamma-1 (Homo sapiens) (UniProt P54619+Q9Y478+Q13131); experiment: Inhibition of human AMPKalpha1/beta1/gamma1 at 1 uM using substrate peptide by off-chip mobility shift assay
[6] = target: Aurora kinase A (Homo sapiens) (UniProt O14965); experiment: Inhibition of human Aurora A at 1 uM using substrate peptide by off-chip mobility shift assay
[7] = target: Calcium/calmodulin-dependent protein kinase type IV (Homo sapiens) (UniProt Q16566); experiment: Inhibition of human CaMK4 at 1 uM using substrate peptide by off-chip mobility shift assay
[8] = target: Cyclin-dependent kinase 1/cyclin B1 (Homo sapiens) (UniProt P06493+P14635); experiment: Inhibition of human CDC2/CycB1 at 1 uM using substrate peptide by off-chip mobility shift assay; assay type: protein-complex assay
[9] = target: CDK2/Cyclin C (Homo sapiens) (UniProt P24941+P24863); experiment: Inhibition of human CDK2/CycC2 at 1 uM using substrate peptide by off-chip mobility shift assay
[10] = target: Cyclin-dependent kinase 2/cyclin E1 (Homo sapiens) (UniProt P24864+P24941); experiment: Inhibition of human CDK2/CycE1 at 1 uM using substrate peptide by off-chip mobility shift assay; assay type: protein-complex assay
[11] = target: CDK3/Cyclin E (Homo sapiens) (UniProt P24864+Q00526); experiment: Inhibition of human CDK3/CycE1 at 1 uM using substrate peptide by off-chip mobility shift assay; assay type: protein-complex assay
[12] = target: CDK4/Cyclin D3 (Homo sapiens) (UniProt P11802+P30281); experiment: Inhibition of human CDK4/CycD3 at 1 uM using substrate peptide by off-chip mobility shift assay; assay type: protein-complex assay
[13] = target: Cyclin-dependent kinase 5/CDK5 activator 1 (Homo sapiens) (UniProt Q00535+Q15078); experiment: Inhibition of human CDK5/p25 at 1 uM using substrate peptide by off-chip mobility shift assay; assay type: protein-complex assay
[14] = target: CDK6/cyclin D3 (Homo sapiens) (UniProt P30281+Q00534); experiment: Inhibition of human CDK6/cyclinD3 at 1 uM using substrate peptide by off-chip mobility shift assay; assay type: protein-complex assay
[15] = target: CDK7/Cyclin H/MNAT1 (Homo sapiens) (UniProt P51946+P50613+P51948); experiment: Inhibition of human CDK7/CycH/MAT1 at 1 uM using substrate peptide by off-chip mobility shift assay; assay type: protein-complex assay
[16] = target: CDK9/cyclin T1 (Homo sapiens) (UniProt O60563+P50750); experiment: Inhibition of human CDK9/CycT1 at 1 uM using substrate peptide by off-chip mobility shift assay; assay type: protein-complex assay
[17] = target: Serine/threonine-protein kinase Chk1 (Homo sapiens) (UniProt O14757); experiment: Inhibition of human CHK1 at 1 uM using substrate peptide by off-chip mobility shift assay
[18] = species on record: Homo sapiens; experiment: Inhibition of human CK1delta at 1 uM using substrate peptide by off-chip mobility shift assay
[19] = target: Death-associated protein kinase 1 (Homo sapiens) (UniProt P53355); experiment: Inhibition of human DAPK1 at 1 uM using substrate peptide by off-chip mobility shift assay
[20] = target: Dual specificity tyrosine-phosphorylation-regulated kinase 1B (Homo sapiens) (UniProt Q9Y463); experiment: Inhibition of human DYRK1B at 1 uM using substrate peptide by off-chip mobility shift assay
Dual specificity tyrosine-phosphorylation-regulated kinase 1B (Homo sapiens), sequence (Q9Y463 whole entry, looked up): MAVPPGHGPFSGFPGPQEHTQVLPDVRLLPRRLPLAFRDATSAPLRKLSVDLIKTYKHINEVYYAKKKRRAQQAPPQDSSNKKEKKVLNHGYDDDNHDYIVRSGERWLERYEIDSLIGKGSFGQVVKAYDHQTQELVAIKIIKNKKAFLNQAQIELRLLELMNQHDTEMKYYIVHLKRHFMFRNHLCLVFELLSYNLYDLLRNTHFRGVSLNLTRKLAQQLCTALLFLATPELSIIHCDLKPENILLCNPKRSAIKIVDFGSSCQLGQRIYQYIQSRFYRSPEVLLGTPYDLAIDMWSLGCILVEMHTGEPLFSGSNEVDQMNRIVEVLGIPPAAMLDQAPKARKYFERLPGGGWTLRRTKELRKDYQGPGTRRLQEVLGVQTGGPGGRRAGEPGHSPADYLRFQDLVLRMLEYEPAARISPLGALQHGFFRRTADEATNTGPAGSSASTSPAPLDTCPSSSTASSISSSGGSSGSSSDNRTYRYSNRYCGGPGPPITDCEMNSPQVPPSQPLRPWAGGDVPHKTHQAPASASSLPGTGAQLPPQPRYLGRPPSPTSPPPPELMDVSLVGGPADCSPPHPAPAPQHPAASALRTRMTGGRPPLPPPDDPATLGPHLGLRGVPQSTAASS

[21] = target: Mitogen-activated protein kinase 1 (Homo sapiens) (UniProt P28482); experiment: Inhibition of human ERK2 at 1 uM using substrate peptide by off-chip mobility shift assay
[22] = target: Glycogen synthase kinase-3 beta (Homo sapiens) (UniProt P49841); experiment: Inhibition of human GSK3beta at 1 uM using substrate peptide by off-chip mobility shift assay
Glycogen synthase kinase-3 beta (Homo sapiens), sequence (P49841 whole entry, looked up): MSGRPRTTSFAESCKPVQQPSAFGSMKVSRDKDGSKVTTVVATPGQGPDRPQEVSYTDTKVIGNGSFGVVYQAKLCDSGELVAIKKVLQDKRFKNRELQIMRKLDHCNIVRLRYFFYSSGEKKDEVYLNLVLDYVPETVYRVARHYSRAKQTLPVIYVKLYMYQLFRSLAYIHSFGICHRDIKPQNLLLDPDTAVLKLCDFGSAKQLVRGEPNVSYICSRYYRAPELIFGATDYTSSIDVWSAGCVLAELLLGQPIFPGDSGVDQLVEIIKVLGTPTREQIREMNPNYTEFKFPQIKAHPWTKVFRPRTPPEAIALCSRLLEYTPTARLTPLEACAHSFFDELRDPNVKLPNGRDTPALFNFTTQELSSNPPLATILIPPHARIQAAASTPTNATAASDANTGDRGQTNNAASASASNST

[23] = target: Mitogen-activated protein kinase kinase kinase kinase 4 (Homo sapiens) (UniProt O95819); experiment: Inhibition of human HGK at 1 uM using substrate peptide by off-chip mobility shift assay
[24] = target: Inhibitor of nuclear factor kappa-B kinase subunit beta (Homo sapiens) (UniProt O14920); experiment: Inhibition of human IKKbeta at 1 uM using substrate peptide by off-chip mobility shift assay
[25] = target: Interleukin-1 receptor-associated kinase 4 (Homo sapiens) (UniProt Q9NWZ3); experiment: Inhibition of human IRAK4 at 1 uM using substrate peptide by off-chip mobility shift assay
Interleukin-1 receptor-associated kinase 4 (Homo sapiens), sequence (Q9NWZ3 whole entry): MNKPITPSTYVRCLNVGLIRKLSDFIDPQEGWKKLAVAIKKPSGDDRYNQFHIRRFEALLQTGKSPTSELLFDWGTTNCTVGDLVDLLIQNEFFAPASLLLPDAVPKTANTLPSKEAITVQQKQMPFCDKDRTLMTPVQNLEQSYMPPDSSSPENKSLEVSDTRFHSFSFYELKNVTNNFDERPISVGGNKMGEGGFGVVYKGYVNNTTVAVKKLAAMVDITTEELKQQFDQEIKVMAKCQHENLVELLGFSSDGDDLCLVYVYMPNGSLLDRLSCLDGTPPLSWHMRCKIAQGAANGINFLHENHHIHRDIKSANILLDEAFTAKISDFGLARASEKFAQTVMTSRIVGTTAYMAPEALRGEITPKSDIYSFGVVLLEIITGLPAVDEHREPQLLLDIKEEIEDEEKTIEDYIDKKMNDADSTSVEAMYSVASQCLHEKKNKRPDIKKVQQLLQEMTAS

[26] = target: Interleukin-1 receptor-associated kinase 4 (Homo sapiens) (UniProt Q9NWZ3); experiment: Inhibition of human JNK2 at 1 uM using substrate peptide by off-chip mobility shift assay
[27] = target: Mitogen-activated protein kinase kinase kinase kinase 2 (Homo sapiens) (UniProt Q12851); experiment: Inhibition of human MAP4K2 at 1 uM using substrate peptide by off-chip mobility shift assay
Mitogen-activated protein kinase kinase kinase kinase 2 (Homo sapiens), sequence (Q12851 whole entry): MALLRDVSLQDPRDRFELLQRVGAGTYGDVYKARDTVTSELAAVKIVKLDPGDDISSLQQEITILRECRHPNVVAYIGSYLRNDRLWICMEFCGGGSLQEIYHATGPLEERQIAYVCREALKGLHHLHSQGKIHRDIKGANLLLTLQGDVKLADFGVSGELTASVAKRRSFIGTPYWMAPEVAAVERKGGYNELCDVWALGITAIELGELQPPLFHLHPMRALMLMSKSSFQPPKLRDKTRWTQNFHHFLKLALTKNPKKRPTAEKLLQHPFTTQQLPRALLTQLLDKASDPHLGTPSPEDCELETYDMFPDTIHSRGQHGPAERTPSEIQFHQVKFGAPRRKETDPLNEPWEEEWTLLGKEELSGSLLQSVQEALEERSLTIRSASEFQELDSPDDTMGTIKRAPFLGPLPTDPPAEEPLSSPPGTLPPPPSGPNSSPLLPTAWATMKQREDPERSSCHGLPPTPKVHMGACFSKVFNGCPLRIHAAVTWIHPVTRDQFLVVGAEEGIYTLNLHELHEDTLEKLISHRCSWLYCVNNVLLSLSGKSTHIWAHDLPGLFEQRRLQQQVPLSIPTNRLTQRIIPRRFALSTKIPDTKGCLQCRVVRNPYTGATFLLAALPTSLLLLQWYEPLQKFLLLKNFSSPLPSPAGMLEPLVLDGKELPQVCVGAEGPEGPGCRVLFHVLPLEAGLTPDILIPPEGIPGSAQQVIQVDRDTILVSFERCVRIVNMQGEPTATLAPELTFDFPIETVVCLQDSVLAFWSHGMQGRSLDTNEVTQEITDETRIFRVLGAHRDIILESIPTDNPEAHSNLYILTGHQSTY

[28] = target: Serine/threonine-protein kinase 4 (Homo sapiens) (UniProt Q13043); experiment: Inhibition of human MST1 at 1 uM using substrate peptide by off-chip mobility shift assay
Serine/threonine-protein kinase 4 (Homo sapiens), sequence (Q13043 whole entry): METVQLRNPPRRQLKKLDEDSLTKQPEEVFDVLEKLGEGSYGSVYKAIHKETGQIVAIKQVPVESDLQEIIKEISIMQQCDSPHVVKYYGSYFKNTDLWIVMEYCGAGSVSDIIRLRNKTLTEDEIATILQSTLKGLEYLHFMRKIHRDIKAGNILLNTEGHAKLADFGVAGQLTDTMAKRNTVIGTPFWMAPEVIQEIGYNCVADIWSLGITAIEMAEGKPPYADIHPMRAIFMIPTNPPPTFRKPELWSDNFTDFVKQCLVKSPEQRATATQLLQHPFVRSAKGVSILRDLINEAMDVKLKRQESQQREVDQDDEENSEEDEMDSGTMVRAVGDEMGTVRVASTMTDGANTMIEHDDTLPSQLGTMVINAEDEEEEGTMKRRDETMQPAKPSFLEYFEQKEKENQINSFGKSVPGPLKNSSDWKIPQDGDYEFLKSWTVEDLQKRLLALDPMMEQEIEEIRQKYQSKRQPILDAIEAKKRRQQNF

[29] = target: Serine/threonine-protein kinase Nek2 (Homo sapiens) (UniProt P51955); experiment: Inhibition of human NEK2 at 1 uM using substrate peptide by off-chip mobility shift assay
[30] = target: Mitogen-activated protein kinase 14 (Homo sapiens) (UniProt Q16539); experiment: Inhibition of human p38alpha at 1 uM using substrate peptide by off-chip mobility shift assay
[31] = species on record: Homo sapiens; experiment: Inhibition of human p70S6K at 1 uM using substrate peptide by off-chip mobility shift assay
[32] = target: Serine/threonine-protein kinase PAK 2 (Homo sapiens) (UniProt Q13177); experiment: Inhibition of human PAK2 at 1 uM using substrate peptide by off-chip mobility shift assay
[33] = target: Lymphokine-activated killer T-cell-originated protein kinase (Homo sapiens) (UniProt Q96KB5); experiment: Inhibition of human PBK at 1 uM using substrate peptide by off-chip mobility shift assay
[34] = target: 3-phosphoinositide-dependent protein kinase 1 (Homo sapiens) (UniProt O15530); experiment: Inhibition of human PDK1 at 1 uM using substrate peptide by off-chip mobility shift assay
3-phosphoinositide-dependent protein kinase 1 (Homo sapiens), sequence (O15530 whole entry): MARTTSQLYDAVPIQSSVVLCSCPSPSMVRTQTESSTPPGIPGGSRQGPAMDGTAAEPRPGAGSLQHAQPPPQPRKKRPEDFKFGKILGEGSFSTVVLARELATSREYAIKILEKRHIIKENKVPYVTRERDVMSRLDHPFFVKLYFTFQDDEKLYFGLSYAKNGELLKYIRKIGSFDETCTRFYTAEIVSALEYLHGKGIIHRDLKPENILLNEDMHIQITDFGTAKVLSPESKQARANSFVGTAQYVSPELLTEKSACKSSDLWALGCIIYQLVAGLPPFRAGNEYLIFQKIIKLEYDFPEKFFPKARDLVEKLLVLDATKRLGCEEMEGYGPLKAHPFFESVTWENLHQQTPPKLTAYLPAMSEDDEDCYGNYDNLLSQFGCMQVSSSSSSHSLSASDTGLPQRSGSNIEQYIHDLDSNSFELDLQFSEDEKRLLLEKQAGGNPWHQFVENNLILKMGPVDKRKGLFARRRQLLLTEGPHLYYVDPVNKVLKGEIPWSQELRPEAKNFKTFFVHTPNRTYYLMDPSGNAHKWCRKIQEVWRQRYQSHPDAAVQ

[35] = target: Serine/threonine-protein kinase pim-1 (Homo sapiens) (UniProt P11309); experiment: Inhibition of human PIM1 at 1 uM using substrate peptide by off-chip mobility shift assay
[36] = target: cAMP-dependent protein kinase catalytic subunit alpha (Homo sapiens) (UniProt P17612); experiment: Inhibition of human PKACalpha at 1 uM using substrate peptide by off-chip mobility shift assay
[37] = target: Serine/threonine-protein kinase D2 (Homo sapiens) (UniProt Q9BZL6); experiment: Inhibition of human PKD2 at 1 uM using substrate peptide by off-chip mobility shift assay
[38] = target: Rho-associated protein kinase 1 (Homo sapiens) (UniProt Q13464); experiment: Inhibition of human ROCK1 at 1 uM using substrate peptide by off-chip mobility shift assay
[39] = target: Serine/threonine-protein kinase Sgk1 (Homo sapiens) (UniProt O00141); experiment: Inhibition of human SGK at 1 uM using substrate peptide by off-chip mobility shift assay
[40] = target: Testis-specific serine/threonine-protein kinase 1 (Homo sapiens) (UniProt Q9BXA7); experiment: Inhibition of human TSSK1 at 1 uM using substrate peptide by off-chip mobility shift assay
Testis-specific serine/threonine-protein kinase 1 (Homo sapiens), sequence (Q9BXA7 whole entry): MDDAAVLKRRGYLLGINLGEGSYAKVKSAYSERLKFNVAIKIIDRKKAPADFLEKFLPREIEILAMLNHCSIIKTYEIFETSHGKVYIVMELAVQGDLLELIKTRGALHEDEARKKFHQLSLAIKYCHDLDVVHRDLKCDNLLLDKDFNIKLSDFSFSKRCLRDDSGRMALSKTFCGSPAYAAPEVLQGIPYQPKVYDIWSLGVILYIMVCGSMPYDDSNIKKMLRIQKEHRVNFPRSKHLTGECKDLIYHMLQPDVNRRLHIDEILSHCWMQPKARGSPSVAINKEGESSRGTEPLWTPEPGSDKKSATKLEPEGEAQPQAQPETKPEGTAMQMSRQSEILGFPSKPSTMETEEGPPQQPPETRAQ

Question: Which inhibition [1] does the source give for `NC(=O)c1ccc([N+](=O)[O-])c(Nc2ccc(N3CC(OCCO)C3)cc2)c1` here?
Answer: The inhibition was over 90%.

Question: And the inhibition at 1 µM [2]?
Answer: The inhibition at 1 µM was at least 50%.

Question: Which results are given for `CNC(=O)c1ccc([N+](=O)[O-])c(Nc2ccc(N3CC(OCCO)C3)cc2)c1`?
Answer: inhibition [1]: > 90%; inhibition at 1 µM [2]: ≥ 50%

Question: Which inhibition [1] does the source give for `CC(=O)c1ccc(C(N)=O)cc1Nc1ccc(OCCOCCCC(=O)O)cc1` here?
Answer: Its inhibition is over 90%.

Question: `CC(=O)c1ccc(C(N)=O)cc1Oc1ccc(OCCOCCOC(C)C)cc1` was tested. Which inhibition [1] did it give?
Answer: The inhibition was over 90%.

Question: What about the inhibition at 1 µM [2] of the same molecule?
Answer: Its inhibition at 1 µM is at least 50%.

Question: How did the inhibition [1] turn out when `C[C@@H](O)c1ccc(C(N)=O)cc1Oc1ccc(OCCOC2CCOCC2)cc1` was run?
Answer: Its inhibition is over 90%.

Question: What about the inhibition [3] of the same molecule?
Answer: Its inhibition is over 90%.

Question: For `CC(=O)c1ccc(C(N)=O)cc1Oc1ccc(OCCOC2CCOCC2)cc1`, which inhibition [1] is on record?
Answer: The inhibition was over 90%.

Question: What about the inhibition [3] of the same molecule?
Answer: Its inhibition is over 90%.

Question: What about the inhibition [4] of the same molecule?
Answer: The inhibition was “inactive”.

Question: And the inhibition [5]?
Answer: The inhibition was “inactive”.

Question: What about the inhibition [6] of the same molecule?
Answer: The inhibition was “inactive”.

Question: And the inhibition [7]?
Answer: The inhibition was “inactive”.

Question: And the inhibition [8]?
Answer: The inhibition was “inactive”.

Question: And the inhibition [9]?
Answer: Its inhibition is “inactive”.

Question: What about the inhibition [10] of the same molecule?
Answer: Its inhibition is “inactive”.

Question: And the inhibition [11]?
Answer: The inhibition was “inactive”.

Question: And the inhibition [12]?
Answer: The inhibition was “inactive”.

Question: What about the inhibition [13] of the same molecule?
Answer: The inhibition was “inactive”.

Question: And the inhibition [14]?
Answer: The inhibition was “inactive”.

Question: What about the inhibition [15] of the same molecule?
Answer: Its inhibition is “inactive”.

Question: And the inhibition [16]?
Answer: Its inhibition is “inactive”.

Question: What about the inhibition [17] of the same molecule?
Answer: The inhibition was “inactive”.

Question: What about the inhibition [18] of the same molecule?
Answer: Its inhibition is “inactive”.

Question: And the inhibition [19]?
Answer: Its inhibition is “inactive”.

Question: And the inhibition [20]?
Answer: Its inhibition is “inactive”.

Question: And the inhibition [21]?
Answer: The inhibition was “inactive”.

Question: And the inhibition [22]?
Answer: The inhibition was “inactive”.

Question: And the inhibition [23]?
Answer: The inhibition was “inactive”.

Question: What about the inhibition [24] of the same molecule?
Answer: The inhibition was “inactive”.

Question: And the inhibition [25]?
Answer: The inhibition was “inactive”.

Question: And the inhibition [26]?
Answer: Its inhibition is “inactive”.

Question: What about the inhibition [27] of the same molecule?
Answer: The inhibition was “inactive”.

Question: What about the inhibition [28] of the same molecule?
Answer: The inhibition was “inactive”.

Question: And the inhibition [29]?
Answer: Its inhibition is “inactive”.

Question: And the inhibition [30]?
Answer: Its inhibition is “inactive”.

Question: What about the inhibition [31] of the same molecule?
Answer: The inhibition was “inactive”.

Question: And the inhibition [32]?
Answer: The inhibition was “inactive”.

Question: And the inhibition [33]?
Answer: Its inhibition is “inactive”.

Question: What about the inhibition [34] of the same molecule?
Answer: The inhibition was “inactive”.

Question: What about the inhibition [35] of the same molecule?
Answer: Its inhibition is “inactive”.

Question: What about the inhibition [36] of the same molecule?
Answer: Its inhibition is “inactive”.

Question: And the inhibition [37]?
Answer: The inhibition was “inactive”.

Question: What about the inhibition [38] of the same molecule?
Answer: Its inhibition is “inactive”.

Question: What about the inhibition [39] of the same molecule?
Answer: The inhibition was “inactive”.

Question: And the inhibition [40]?
Answer: Its inhibition is “inactive”.

Question: And the inhibition at 1 µM [2]?
Answer: The inhibition at 1 µM was at least 50%.

Question: Which inhibition [1] does the source give for `C=C(F)c1ccc(C(N)=O)cc1Oc1ccc(OCCOC2CCOCC2)cc1` here?
Answer: The inhibition was over 90%.

Question: What about the inhibition at 1 µM [2] of the same molecule?
Answer: The inhibition at 1 µM was at least 50%.

Question: `COc1cc(Nc2ccc(N3CCN(CC(C)(C)C(=O)O)CC3)cc2)c([N+](=O)[O-])cc1F` was tested. Which inhibition [1] did it give?
Answer: The inhibition was over 90%.

Question: `NC(=O)c1ccc(C(F)(F)F)c(Oc2ccc(OCCOC3CCOCC3)cc2)c1` was tested. Which inhibition [1] did it give?
Answer: Its inhibition is over 90%.

Question: And the inhibition at 1 µM [2]?
Answer: The inhibition at 1 µM was at least 50%.

Question: For `CC(=O)c1ccc(C(N)=O)cc1Oc1ccc(OCCOC2CCOC2)cc1` (configuration not stated), which inhibition [1] is on record?
Answer: Its inhibition is over 90%.

Question: And the inhibition at 1 µM [2]?
Answer: The inhibition at 1 µM was at least 50%.

Question: What does the source list for `NC(=O)c1ccc([N+](=O)[O-])c(Nc2ccc(OCCOC3CCOCC3)cc2)c1`?
Answer: inhibition [1]: > 90%; inhibition at 1 µM [2]: ≥ 50%

Question: Which inhibition [1] does the source give for `CC(C)OCCOCCOc1ccc(Oc2cc(C(N)=O)ccc2C(F)(F)F)cc1` here?
Answer: The inhibition was over 90%.

Question: Which inhibition [1] does the source give for `CC(=O)c1ccc(C(N)=O)cc1Oc1ccc(N2CC(OCCO)C2)cc1` here?
Answer: The inhibition was over 90%.

Question: What about the inhibition at 1 µM [2] of the same molecule?
Answer: Its inhibition at 1 µM is at least 50%.

Question: `CC(=O)c1ccc(C(N)=O)c(Oc2ccc(N3CC(OCCO)C3)cc2)c1` was tested. Which inhibition [1] did it give?
Answer: The inhibition was over 90%.
